Literature values, collected in patent US20050165041A1, “Combination for the treatment of airway disorders” (Altana Pharma AG, priority 2002, published 2005).

Tests used:
[1] = 8-week double-blind, placebo-controlled crossover study; sole medication
HCl-induced lung lesions = settings: rats
[2] = combination with theophyllin

Row | SMILES | nocturnal asthma symptoms [1] | effect on HCl-induced lung lesions (HCl-induced lung lesions) | pharmacokinetic interaction with theophyllin [2]
1 | COc1ccc2[nH]c([S+]([O-])Cc3ncc(C)c(OC)c3C)nc2c1 (stereo not shown) [omeprazole, 5-methoxy-2-[(4-methoxy-3,5-dimethyl-2-pyridinyl)methylsulphinyl]-1H-benzimidazole] | reduction in nocturnal asthma symptoms | beneficial effect | –
2 | COc1ccnc(C[S+]([O-])c2nc3ccc(OC(F)F)cc3[nH]2)c1OC (stereo not shown) [pantoprazole, 5-difluoromethoxy-2-[(3,4-dimethoxy-2-pyridinyl)methylsulphinyl]-1H-benzimidazole] | – | – | lack of pharmacokinetic interaction
3 | Cc1c(OCC(F)(F)F)ccnc1C[S+]([O-])c1nc2ccccc2[nH]1 (stereo not shown) [lansoprazole] | – | – | lack of pharmacokinetic interaction
